The values below come from US6987114B1, “Antiviral pyrimidinedione derivatives and process for the preparation thereof” (Samjin Pharmaceutical Co., Ltd, priority 1999, dated 2006).

In brackets after ≈: the same amount, converted by molar mass. Like-named read-outs stand apart in the source and are kept apart here. Some results are limits rather than exact numbers.

The term melting point denotes the temperature of the solid-liquid transition.

One data set has as its system HIV. Nature of the data set: microbe, parasite or virus in culture. Format: cell-based. The essentials: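 MT-4 cells (2.5×10^5 cells/ml) infected with 1000 CCID50 HIV, added at once to compound dilutions, incubated 4 or 5 days at 37° C. Protection from virus-induced cytopathic effect read by MTT; cytotoxicity from MTT viability of mock-infected cells in parallel.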

The test system of another data set is mock-infected MT-4 cells. In words: Cytotoxicity based on viability of mock-infected host cells (MTT method). The data set is classed as cell-based. As to conditions: mock-infected MT-4 cells, MTT method, 4 or 5 days at 37° C. The gist of the method:
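Mock-infected MT-4 cells at 2.5×10^5 cells/ml were exposed to various concentrations of test compound, run in parallel with HIV-infected (1000 CCID50) cultures. After 4 or 5 days at 37° C., host-cell viability was read by MTT.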

[1] abbreviates: Human immunodeficiency virus 1, MT4, HIV-infected MT-4 cells, MTT method, 4 or 5 days at 37° C., read-out: ED50 (the source's name).
Where [2] appears, read: Human immunodeficiency virus 1, MT4, read-out: ED50.

Consider `Cc1cc(C)cc(Oc2c(C(C)C)c(=O)[nH]c(=O)n2Cc2cc(C(F)(F)F)cc(C(F)(F)F)c2)c1` [Example 64, 1-[3,5-Bis(Trifluoromethyl)benzyl]-5-isopropyl-6-(3,5-dimethylphenoxy)-2,4-pyrimidinedione], for which the melting point was 182 to 183 °C. The EC50 with HIV (setting [1]) is over 100 µg/mL. This molecule displayed a CD50 with mock-infected MT-4 cells of over 100.00 µg/mL.

Take `CCc1c(C(=O)c2cc(C)cc(C)c2)n(Cc2cc(F)ccc2F)c(=O)[nH]c1=O` [Example 71, 1-(2,5-Difluorobenzyl)-5-ethyl-6-(3,5-dimethylbenzoyl)-2,4-pyrimidinedione]: the melting point lay within 135 to 137 °C. Besides, in the data set with HIV (setting [1]), the EC50 stood at 0.004 µg/mL (≈ 0.01 µM). In the data set on mock-infected MT-4 cells, this molecule showed a CD50 of over 100.00 µg/mL.

`Cc1cc(C)cc(Sc2c(C(C)C)c(=O)[nH]c(=O)n2Cc2ccccn2)c1` [Example 110, 1-(Pyridin-2-ylmethyl)-5-isopropyl-6-(3,5-dimethylphenyl)thio-2,4-pyrimidinedione] had a melting point of 194 to 196 °C. In addition, the EC50 in the data set on HIV (setting [1]) came out at 0.009 µg/mL (≈ 0.0236 µM). The molecule also showed a CD50 in the data set with mock-infected MT-4 cells of 9.61 µg/mL.

Take `COc1cccc(Cn2c(Sc3cc(C)cc(C)c3)c(C(C)C)c(=O)[nH]c2=O)c1` [Example 26, 1-(3-Methoxybenzyl)-5-isopropyl-6-(3,5-dimethylphenyl)thio-2,4-pyrimidinedione]: the melting point was in the range of 135 to 137 °C. The EC50 in the data set with HIV (setting [1]) turned out to be 0.003 µg/mL (≈ 0.00731 µM). Besides, in the data set with mock-infected MT-4 cells, the CD50 worked out at 9.53 µg/mL.

`Cc1cc(C)cc(Sc2c(C(C)C)c(=O)[nH]c(=O)n2Cc2cc(C(F)(F)F)cc(C(F)(F)F)c2)c1` [Example 62, 1-[3,5-Bis(trifluoromethyl)benzyl]-5-isopropyl-6-(3,5-dimethylphenyl)thio-2,4-pyrimidinedione] gave a melting point of 183 to 185 °C. For the same molecule, the EC50 with HIV (setting [1]) is over 100 µg/mL. In the data set on mock-infected MT-4 cells, this molecule registered a CD50 of over 100.00 µg/mL.

As to `CCc1c(C(=O)c2cc(C)cc(C)c2)n(Cc2ccc3c(c2)C(=O)c2ccccc2C3=O)c(=O)[nH]c1=O` [Example 107, 1-(Anthraquinon-2-ylmethyl)-5-ethyl-6-(3,5-dimethylbenzoyl)-2,4-pyrimidinedione], the melting point was in the range of 143 to 146 °C. Further, the EC50 in the data set with HIV (setting [1]) worked out at 0.026 µg/mL (≈ 0.0528 µM). Further, the CD50 with mock-infected MT-4 cells was found to be 2.38 µg/mL.

`CCc1c(Sc2cc(C)cc(C)c2)n(CC2CC2)c(=O)[nH]c1=O` [Example 1, 1-(Cyclopropyl)methyl-5-ethyl-6-(3,5-dimethylphenyl)thio-2,4-pyrimidinedione] displayed a melting point of 161 to 163 °C. Moreover, the EC50 in the data set with HIV (setting [1]) was found to be 0.0027 µg/mL (≈ 0.00817 µM). Further, the CD50 in the data set on mock-infected MT-4 cells turned out to be 4.75 µg/mL.

As to `CCc1c(Sc2cc(C)cc(C)c2)n(Cc2cccnc2)c(=O)[nH]c1=O` [Example 115, 1-(Pyridin-3-ylmethyl)-5-ethyl-6-(3,5-dimethylphenyl)thio-2,4-pyrimidinedione], the melting point is 202 to 205 °C. Also, the EC50 in the data set on HIV (setting [2]) amounted to 0.014 µg/mL (≈ 0.0381 µM). The CD50 in the data set with mock-infected MT-4 cells is 16.63 µg/mL.

`CCc1c(Oc2cc(C)cc(C)c2)n(Cc2ccc3c(c2)C(=O)c2ccccc2C3=O)c(=O)[nH]c1=O` [Example 105, 1-(Anthraquinon-2-ylmethyl)-5-ethyl-6-(3,5-dimethylphenoxy)-2,4-pyrimidinedione] had a melting point of 233 to 235 °C. Further, the EC50 with HIV (setting [1]) came out at 0.52 µg/mL (≈ 1.08 µM). The CD50 with mock-infected MT-4 cells amounted to 5.30 µg/mL.

With `CCc1c(C(=O)c2cc(C)cc(C)c2)n(Cc2nc3ccccc3o2)c(=O)[nH]c1=O` [Example 149, 1-(Benzoxazol-2-ylmethyl)-5-ethyl-6-(3,5-dimethyl-benzoyl)-2,4-pyrimidinedione], the melting point fell in the range of 218 to 220 °C. The EC50 with HIV (setting [2]) was determined as 0.029 µg/mL (≈ 0.0719 µM). The CD50 in the data set on mock-infected MT-4 cells came to 6.78 µg/mL.

For the molecule `CCc1c(C(=O)c2cc(C)cc(C)c2)n(Cc2ccc3ccccc3n2)c(=O)[nH]c1=O` [Example 135, 1-(Quinolin-2-ylmethyl)-5-ethyl-6-(3,5-dimethylbenzoyl)-2,4-pyrimidinedione], the melting point fell in the range of 218 to 220 °C. Further, the EC50 with HIV (setting [1]) is 0.0089 µg/mL (≈ 0.0215 µM). In addition, in the data set with mock-infected MT-4 cells, the CD50 stood at 6.80 µg/mL.

Regarding `CCc1c(Oc2cc(C)cc(C)c2)n(Cc2cc(F)ccc2F)c(=O)[nH]c1=O` [Example 69, 1-(2,5-Difluorobenzyl)-5-ethyl-6-(3,5-dimethylphenoxy)-2,4-pyrimidinedione], the melting point lay within 231 to 233 °C. Moreover, in the data set with HIV (setting [1]), the EC50 amounted to 0.034 µg/mL (≈ 0.088 µM). This molecule returned a CD50 with mock-infected MT-4 cells of over 100.00 µg/mL.

`Cc1cc(C)cc(Cn2c(C(=O)c3cc(C)cc(C)c3)c(C(C)C)c(=O)[nH]c2=O)c1` [Example 54, 1-(3,5-Dimethylbenzyl)-5-isopropyl-6-(3,5-dimethylbenzoyl)-2,4-pyrimidinedione] had a melting point of 228 to 230 °C. Further, in the data set with HIV (setting [2]), the EC50 was 0.014 µg/mL (≈ 0.0346 µM). For the same molecule, in the data set on mock-infected MT-4 cells, the CD50 worked out at 7.10 µg/mL.

In turn, `Cc1cc(C)cc(Sc2c(C(C)C)c(=O)[nH]c(=O)n2Cc2nc3ccccc3o2)c1` [Example 146, 1-(Benzoxazol-2-ylmethyl)-5-isopropyl-6-(3,5-dimethylphenyl)thio-2,4-pyrimidinedione] gave a melting point of 107 to 109 °C. In the data set on HIV (setting [2]), the EC50 came to 1.02 µg/mL (≈ 2.42 µM). In the data set on mock-infected MT-4 cells, this molecule displayed a CD50 of over 100.00 µg/mL.

The molecule `Cc1cc(C)cc(C(=O)c2c(C(C)C)c(=O)[nH]c(=O)n2CC2CC2)c1` [Example 6, 1-(Cyclopropyl)methyl-5-isopropyl-6-(3,5-dimethylbenzoyl)-2,4-pyrimidinedione] came in with a melting point of 193 to 195 °C. The EC50 in the data set on HIV (setting [1]) is 0.0022 µg/mL (≈ 0.00646 µM). Besides, the CD50 in the data set on mock-infected MT-4 cells is 8.5 µg/mL.

`CCc1c(Sc2cc(C)cc(C)c2)n(Cc2cc(OC)cc(OC)c2)c(=O)[nH]c1=O` [Example 55, 1-(3,5-Dimethoxybenzyl)-5-ethyl-6-(3,5-dimethylphenyl)thio-2,4-pyrimidinedione] registered a melting point of 181 to 183 °C. Further, the EC50 in the data set with HIV (setting [1]) was 0.071 µg/mL (≈ 0.166 µM). This molecule also had a CD50 in the data set with mock-infected MT-4 cells of 10.8 µg/mL.

In turn, `Cc1cc(C)cc(C(=O)c2c(C(C)C)c(=O)[nH]c(=O)n2Cc2cc(Br)cc(Br)c2)c1` [Example 90, 1-(3,5-Dibromobenzyl)-5-isopropyl-6-(3,5-dimethylbenzoyl)-2,4-pyrimidinedione] had a melting point of 223 to 225 °C. Besides, in the data set on HIV (setting [2]), the EC50 worked out at 0.12 µg/mL (≈ 0.225 µM). The molecule further gave a CD50 in the data set with mock-infected MT-4 cells of 8.90 µg/mL.

Regarding `Cc1cc(C)cc(C(=O)c2c(C(C)C)c(=O)[nH]c(=O)n2Cc2c3ccccc3cc3ccccc23)c1` [Example 102, 1-(Anthracen-9-ylmethyl)-5-isopropyl-6-(3,5-dimethyl-benzoyl)-2,4-pyrimidinedione], the melting point lay within 273 to 275 °C. The EC50 with HIV (setting [2]) is over 4.44 µg/mL. The molecule also displayed a CD50 in the data set with mock-infected MT-4 cells of 4.44 µg/mL.

For `CCc1c(Sc2cc(C)cc(C)c2)n(Cc2ccccn2)c(=O)[nH]c1=O` [Example 109, 1-(Pyridin-2-ylmethyl)-5-ethyl-6-(3,5-dimethylphenyl)thio-2,4-pyrimidinedione], the melting point was in the range of 217 to 219 °C. In addition, the EC50 in the data set on HIV (setting [1]) was 0.015 µg/mL (≈ 0.0408 µM). In the data set with mock-infected MT-4 cells, this molecule registered a CD50 of 29.72 µg/mL.

As for `CCc1c(Sc2cc(C)cc(C)c2)n(Cc2cc(F)ccc2F)c(=O)[nH]c1=O` [Example 67, 1-(2,5-Difluorobenzyl)-5-ethyl-6-(3,5-dimethylphenyl)thio-2,4-pyrimidinedione], the melting point fell in the range of 214 to 216 °C. Further, the EC50 in the data set with HIV (setting [1]) came to 0.008 µg/mL (≈ 0.0199 µM). In the data set on mock-infected MT-4 cells, this molecule had a CD50 of 12.40 µg/mL.

In turn, `CCc1c(C(=O)c2cc(C)cc(C)c2)n(Cc2occc2C(=O)OC)c(=O)[nH]c1=O` [Example 155, 1-(3-Methoxycarbonyl-2-furanylmethyl)-5-ethyl-6-(3,5-dimethyl-benzoyl)-2,4-pyrimidinedione] showed a melting point of 204 to 206 °C. Also, the EC50 in the data set on HIV (setting [1]) came to 0.017 µg/mL (≈ 0.0414 µM). The same molecule yielded a CD50 in the data set with mock-infected MT-4 cells of 13.45 µg/mL.

The molecule `CCC(=O)Cn1c(Oc2cc(C)cc(C)c2)c(CC)c(=O)[nH]c1=O` [Example 161, 1-(2-Butanon-1-yl)-5-ethyl-6-(3,5-dimethylphenoxy)-2,4-pyrimidinedione] yielded a melting point of 116 to 118 °C. In the data set on HIV (setting [2]), the EC50 came out at 0.018 µg/mL (≈ 0.0545 µM). This molecule also showed a CD50 in the data set on mock-infected MT-4 cells of 48.0 µg/mL.

In turn, `CCc1c(Oc2cc(C)cc(C)c2)n(Cc2nc3ccccc3o2)c(=O)[nH]c1=O` [Example 147, 1-(Benzoxazol-2-ylmethyl)-5-ethyl-6-(3,5-dimethylphenoxy)-2,4-pyrimidinedione] returned a melting point of 121 to 123 °C. The EC50 in the data set on HIV (setting [2]) is 0.061 µg/mL (≈ 0.156 µM). In the data set with mock-infected MT-4 cells, this molecule displayed a CD50 of 40.20 µg/mL.

Turning to `CCc1c(Oc2cc(C)cc(C)c2)n(Cc2cccnc2)c(=O)[nH]c1=O` [Example 117, 1-(Pyridin-3-ylmethyl)-5-ethyl-6-(3,5-dimethylphenoxy)-2,4-pyrimidinedione], the melting point lay within 230 to 232 °C. In the data set with HIV (setting [2]), the EC50 amounted to 0.061 µg/mL (≈ 0.174 µM). The CD50 in the data set with mock-infected MT-4 cells is 40.20 µg/mL.

The molecule `Cc1cc(C)cc(Sc2c(C(C)C)c(=O)[nH]c(=O)n2Cc2cc(Br)cc(Br)c2)c1` [Example 86, 1-(3,5-Dibromobenzyl)-5-isopropyl-6-(3,5-dimethylphenyl)thio-2,4-pyrimidinedione] had a melting point of 225 to 226 °C. The EC50 in the data set with HIV (setting [2]) came out at 0.094 µg/mL (≈ 0.175 µM). Moreover, the CD50 in the data set on mock-infected MT-4 cells turned out to be 2.11 µg/mL.

On to `Cc1cc(C)cc(Oc2c(C(C)C)c(=O)[nH]c(=O)n2Cc2cccc(Cl)n2)c1` [Example 124, 1-(2-Chloropyridin-6-ylmethyl)-5-isopropyl-6-(3,5-dimethylphenoxy)-2,4-pyrimidinedione], for which the melting point lay in the range of 223 to 225 °C. For the same molecule, the EC50 in the data set on HIV (setting [1]) is 0.082 µg/mL (≈ 0.205 µM). Further, the CD50 in the data set with mock-infected MT-4 cells is over 100.00 µg/mL.
